The values that follow are results of earlier work, collected in patent publication US20220347165A1, “EFFERVESCENT ORAL COMPOSITION” (NICOVENTURES TRADING LIMITED, priority 2021, published 2022).

The conditions of data set [1]: when isolated; isomerizes to trans-bixin.

The structures appear in SMILES notation.

Take `CC(/C=C/C=C(C)/C=C/C(=O)O)=C\C=C\C=C(C)\C=C\C=C(C)\C=C\C(=O)O` (stereo in doubt) [norbixin, (2E,4E,6E,8E,10E,12E,14E,16E,18E)-4,8,13,17-tetramethylicosa-2,4,6,8,10,12,14,16,18-nonaenedioic acid]: the solubility in water result is “water soluble”.
As for `COC(=O)/C=C/C(C)=C\C=C\C(C)=C\C=C\C=C(C)\C=C\C=C(C)\C=C\C(=O)O` [bixin, (2E,4E,6E,8E,10E,12E,14E,16Z,18E)-20-methoxy-4,8,13,17-tetramethyl-20-oxoicosa-2,4,6,8,10,12,14,16,18-nonaenoic acid], the solubility in water entry is on record as “insoluble in water”. For the same compound, where the note is “fats and alcohols”, the “solubility in fats and alcohols” value was “soluble in fats and alcohols”. Also, the chemical stability result in data set [1] is “chemically unstable when isolated”.
